Laboratory results published in patent US9732075B2, “Benzimidazole-proline derivatives” (IDORSIA PHARMACEUTICALS LTD, priority 2012, dated 2017).

What was measured:
human orexin-1 receptor = human orexin-1 receptor (Homo sapiens (Human), UniProt O43613); experiment: In vitro assay: intracellular calcium measurements (FLIPR), antagonistic activity; assay type: cell-based; settings: CHO cells expressing human orexin-1 receptor, orexin-A agonist, geometric mean, read-out: IC50 Ox1
Method: (§1) In Vitro Assay: Intracellular Calcium Measurements:
(§2) Chinese hamster ovary (CHO) cells expressing the human orexin-1 receptor and the human orexin-2 receptor, respectively, are grown in culture medium (Ham F-12 with L-Glutamine) containing 300 μg/ml G418, 100 U/ml penicillin, 100 μg/ml streptomycin and 10% heat inactivated fetal calf serum (FCS). The cells are seeded at 20,000 cells/well into 384-well black clear bottom sterile plates (Greiner). The seeded plates are incubated overnight at 37° C. in 5% CO2.
(§3) Human orexin-A as an agonist is prepared as 1 mM stock solution in MeOH: water (1:1), diluted in HBSS containing 0.1% bovine serum albumin (BSA), NaHCO3: 0.375 g/l and 20 mM HEPES for use in the assay at a final concentration of 3 nM.
(§4) Antagonists are prepared as 10 mM stock solution in DMSO, then diluted in 384-well plates using DMSO followed by a transfer of the dilutions into in HBSS containing 0.1% bovine serum albumin (BSA), NaHCO3: 0.375 g/l and 20 mM HEPES. On the day of the assay, 50 μl of staining buffer (HBSS containing 1% FCS, 20 mM HEPES, NaHCO3: 0.375 g/l, 5 mM probenecid (Sigma) and […] of the fluorescent calcium indicator fluo-4 AM (1 mM stock solution in DMSO, containing 10% pluronic) is added to each well. The 384-well cell-plates are incubated for 50 min at 37° C. in 5% CO2 followed by equilibration at RT for 30 min before measurement.
(§5) Within the Fluorescent Imaging Plate Reader (FLIPR Tetra, Molecular Devices), antagonists are added to the plate in a volume of 10 μl/well, incubated for 120 min and finally 10 μl/well of agonist is added. Fluorescence is measured for each well at 1 second intervals, and the height of each fluorescence peak is compared to the height of the fluorescence peak induced by an approximate EC70 (for example 5 nM) of orexin-A with vehicle in place of antagonist. The IC50 value (the concentration of compound needed to inhibit 50% of the agonistic response) is determined and may be normalized using the obtained IC50 value of a on-plate reference compound. Optimized conditions are achieved by adjustment of pipetting speed and cell splitting regime. The calculated IC50 values may fluctuate depending on the daily cellular assay performance. Fluctuations of this kind are known to those skilled in the art. Average IC50 values from several measurements are given as geometric mean values.

human orexin-2 receptor = human orexin-2 receptor (Homo sapiens (Human), UniProt O43614); experiment: as above; assay type: cell-based; settings: CHO cells expressing human orexin-2 receptor, orexin-A agonist, geometric mean, read-out: IC50 Ox2
Method: as §1, §2, §3, §4, §5

human orexin-2 receptor, sequence (O43614 whole entry): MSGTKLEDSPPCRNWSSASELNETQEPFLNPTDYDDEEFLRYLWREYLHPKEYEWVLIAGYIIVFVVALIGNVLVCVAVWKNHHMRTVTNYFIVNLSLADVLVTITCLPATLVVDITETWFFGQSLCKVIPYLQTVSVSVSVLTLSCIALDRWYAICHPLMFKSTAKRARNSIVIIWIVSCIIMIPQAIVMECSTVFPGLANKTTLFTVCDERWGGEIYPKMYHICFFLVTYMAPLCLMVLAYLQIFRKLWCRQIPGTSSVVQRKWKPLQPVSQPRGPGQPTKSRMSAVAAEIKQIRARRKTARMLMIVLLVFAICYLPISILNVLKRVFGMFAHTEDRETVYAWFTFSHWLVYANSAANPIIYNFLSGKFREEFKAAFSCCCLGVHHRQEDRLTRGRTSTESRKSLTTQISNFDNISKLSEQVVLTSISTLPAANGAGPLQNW
human orexin-1 receptor, sequence (O43613 whole entry): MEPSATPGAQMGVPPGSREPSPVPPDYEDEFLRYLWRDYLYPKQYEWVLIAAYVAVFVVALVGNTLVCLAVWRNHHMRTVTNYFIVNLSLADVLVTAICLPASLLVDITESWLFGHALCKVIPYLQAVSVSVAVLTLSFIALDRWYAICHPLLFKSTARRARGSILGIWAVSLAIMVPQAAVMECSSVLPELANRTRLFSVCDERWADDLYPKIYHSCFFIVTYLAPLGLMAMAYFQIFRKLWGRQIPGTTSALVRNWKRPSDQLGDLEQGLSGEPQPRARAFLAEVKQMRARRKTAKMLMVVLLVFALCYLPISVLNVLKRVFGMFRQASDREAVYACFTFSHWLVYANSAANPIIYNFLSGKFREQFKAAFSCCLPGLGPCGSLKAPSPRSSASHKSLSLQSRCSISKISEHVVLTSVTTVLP

Structure (SMILES)	IC50 (human orexin-1 receptor)	IC50 (human orexin-2 receptor)
Cc1cccc(-c2ccc(C)cc2C(=O)N2CCC[C@@]2(C)c2nc3cc(C)c(C)cc3n2CC2CC2)c1 [Ex. 7.26]	42 nM	54 nM
Cc1ccc(C(=O)N2CC[C@H](C)[C@H]2c2nc3cc(Cl)c(C)cc3[nH]2)c(-c2ccccc2)c1 [Ex. 4.111]	2 nM	110 nM
Cc1nc(C(=O)N2CC[C@H](C)[C@H]2c2nc3c(C(F)(F)F)cccc3[nH]2)c(-c2ccccc2Cl)s1 [Ex. 4.155]	42 nM	891 nM
C=C1C[C@@H](c2nc3cccc(C)c3[nH]2)N(C(=O)c2cc(C)c(C)cc2-n2nccn2)C1 [Ex. 6.108]	414 nM	7 nM
Cc1ccc(-c2ccccc2F)c(C(=O)N2CCC[C@@]2(C)c2nc3cc(C)c(C)cc3[nH]2)c1 [Ex. 5.95]	11 nM	29 nM
COc1ccc(-n2nccn2)c(C(=O)N2CCC[C@@]2(C)c2nc3cc(OC(F)(F)F)ccc3[nH]2)c1 [Ex. 5.237]	58 nM	223 nM
Cc1c(Cl)ccc2[nH]c([C@]3(C)CCCN3C(=O)c3nc(-c4cc(F)ccc4F)sc3-c3ccc(F)cc3)nc12 [Ex. 5.261]	4 nM	466 nM
C=C1CN(C(=O)c2ccccc2-c2ccc(F)c(C)c2)C(C)(c2nc3cc(OC)ccc3[nH]2)C1 (racemic) [Ex. 6.151]	46 nM	44 nM
C[C@@]1(c2nc3ccc(C(F)(F)F)cc3[nH]2)CCCN1C(=O)c1nc(-c2ccccc2F)sc1-c1ccc(F)cc1 [Ex. 5.294]	39 nM	714 nM
Cc1ccc(-c2cccc(F)c2)c(C(=O)N2CCC[C@@]2(C)c2nc3cc(C)c(C)cc3n2CCF)c1 [Ex. 7.35]	6 nM	20 nM
COc1ccc(-n2nccn2)c(C(=O)N2C[C@H](OC)CC2(C)c2nc3c(C)c(Cl)ccc3[nH]2)c1F (stereo partly shown) [Ex. 3.46]	223 nM	288 nM
Cc1ccc(-c2ccccc2)c(C(=O)N2CC[C@H](C)[C@H]2c2nc3c(C)c(Cl)ccc3[nH]2)c1F [Ex. 4.171]	1.5 nM	571 nM
CCn1c([C@]2(C)CCCN2C(=O)c2cc(C)ccc2-c2cccc(F)c2)nc2cc(C)c(C)cc21 [Ex. 7.31]	8 nM	19 nM
COc1cc2nc([C@@H]3[C@@H](C)CCN3C(=O)c3ccccc3-c3ccc(C)cc3)[nH]c2cc1OC [Ex. 4.58]	66 nM	2170 nM
Cc1ccc(-c2ccc(C)cc2C(=O)N2CCC[C@@]2(C)c2nc3c(C)c(C)ccc3[nH]2)cc1 [Ex. 5.113]	12 nM	15 nM
Cc1ccc(-n2nccn2)c(C(=O)N2CCC[C@@]2(C)c2nc3c(Cl)cccc3[nH]2)c1 [Ex. 5.26]	39 nM	197 nM
COc1ccc2nc([C@@H]3C[C@@H](OC)CN3C(=O)c3cc(F)ccc3-n3nccn3)[nH]c2c1 [Ex. 3.23]	3890 nM	67 nM
COc1ccc(-n2nccn2)c(C(=O)N2CCC[C@H]2c2nc3ccc(SC)cc3[nH]2)c1 [Ex. 1.150]	301 nM	11 nM
Cc1nc(C(=O)N2CC[C@H](C)[C@H]2c2nc3cc(C)c(C)cc3[nH]2)c(-c2cc(F)cc(F)c2)s1 [Ex. 4.89]	3 nM	2170 nM
COc1ccc(-c2cccc(C#N)c2)c(C(=O)N2CCC[C@@]2(C)c2nc3c(C)c(Cl)ccc3[nH]2)c1F [Ex. 5.307]	20 nM	49 nM
CSc1ccc2nc([C@@H]3CCCN3C(=O)c3ccccc3-c3ccc(C)c(C)c3)[nH]c2c1 [Ex. 1.46]	128 nM	13 nM
Cc1ccc(-n2cccn2)c(C(=O)N2CCC[C@@]2(C)c2nc3c(C)c(Cl)ccc3[nH]2)n1 [Ex. 5.44]	8 nM	29 nM

Structure (SMILES)	IC50 (human orexin-1 receptor)	IC50 (human orexin-2 receptor)
Cc1c(Cl)ccc2[nH]c([C@]3(C)CCCN3C(=O)c3c(F)cccc3-c3ccccn3)nc12 [Ex. 5.221]	19 nM	83 nM
Cc1ccc(-n2nccn2)c(C(=O)N2CCC[C@@]2(C)c2nc3cc(C(F)(F)F)c(Cl)cc3[nH]2)c1F [Ex. 5.134]	8 nM	20 nM
C=C1C[C@@H](c2nc3cc(OC)ccc3[nH]2)N(C(=O)c2cnc(C)nc2-c2ccccc2)C1 [Ex. 6.16]	307 nM	151 nM
C=C1CC(c2nc3c(C)cccc3[nH]2)N(C(=O)c2nc(C3CC3)sc2-c2cccc(C)c2)C1 (stereo not shown) [Ex. 6.94]	2 nM	1 nM
Cc1nc(C(=O)N2CC[C@H](C)[C@H]2c2nc3cc(C(F)(F)F)ccc3[nH]2)c(-c2ccc(F)c(F)c2)s1 [Ex. 4.143]	24 nM	3680 nM
C=C1C[C@@H](c2nc3cc(OC)ccc3[nH]2)N(C(=O)c2ccccc2-c2ccc(C)cc2)C1 [Ex. 6.15]	298 nM	37 nM
CO[C@@H]1C[C@@H](c2nc3ccc(Cl)c(C)c3[nH]2)N(C(=O)c2c(C)cccc2-n2nccn2)C1 [Ex. 3.14]	674 nM	23 nM
CSc1cccc2nc([C@@H]3CCCN3C(=O)c3cnc(C)nc3-c3cc(Cl)cc(Cl)c3)[nH]c12 [Ex. 1.91]	13 nM	25 nM
Cc1nc(C(=O)N2CCCC2c2nc3c(CO)cccc3[nH]2)c(-c2cccc(Cl)c2)s1 (stereo not shown) [Ex. 1.103]	364 nM	112 nM
Cc1c(Cl)ccc2[nH]c([C@@H]3[C@@H](C)CCN3C(=O)c3cc(Cl)ccc3-n3nccn3)nc12 [Ex. 4.60]	2 nM	65 nM
CSc1ccc2nc([C@@H]3CCCN3C(=O)c3c(F)cccc3-n3nccn3)[nH]c2c1 [Ex. 1.148]	1170 nM	44 nM
Cc1nc(C(=O)N2CCCC2c2nc3cc(Br)ccc3[nH]2)c(-c2cccc(Cl)c2)s1 (stereo not shown) [Ex. 1.93]	102 nM	458 nM
Cc1ccc(-n2nccn2)c(C(=O)N2C[C@H](F)C[C@H]2c2nc3c(C)cccc3[nH]2)c1 [Ex. 2.11]	69 nM	124 nM
C=C1C[C@@H](c2nc3cc(C(C)(C)C)ccc3[nH]2)N(C(=O)c2cc(OC)c(OC)cc2-n2nccn2)C1 [Ex. 6.170]	18 nM	15 nM
CO[C@@H]1C[C@@H](c2nc3ccc(Cl)c(C)c3[nH]2)N(C(=O)c2cc(Cl)ccc2-n2nccn2)C1 [Ex. 3.10]	45 nM	5 nM
C=C1C[C@@H](c2nc3cc(C(C)(C)C)ccc3[nH]2)N(C(=O)c2cc(C)c(C)cc2-n2nccn2)C1 [Ex. 6.165]	9 nM	3 nM
CSc1ccc2[nH]c([C@@H]3CCCN3C(=O)c3ccccc3-n3cccn3)nc2c1 [Ex. 1.176]	2190 nM	99 nM
Cc1ccc(-c2nc(C)sc2C(=O)N2CC[C@H](C)[C@H]2c2nc3c(C)c(Cl)ccc3[nH]2)cc1 [Ex. 4.65]	8 nM	207 nM
C=C1C[C@@H](c2nc3cc(Cl)c(C(F)(F)F)cc3[nH]2)N(C(=O)c2nc(C)ccc2-n2nccn2)C1 [Ex. 6.190]	10 nM	9 nM
C=C1C[C@@H](c2nc3c(C)cc(C)cc3[nH]2)N(C(=O)c2nc(C)sc2-c2ccc(C)c(C)c2)C1 [Ex. 6.58]	4 nM	1 nM
CO[C@H]1CN(C(=O)c2nc(C)sc2-c2cccc(Cl)c2)C(C)(c2nc3c(C)c(Cl)ccc3[nH]2)C1 (stereo partly shown) [Ex. 3.27]	5 nM	16 nM
Cc1ccc(-c2ncccn2)c(C(=O)N2CC[C@H](C)[C@H]2c2nc3ccc(Cl)c(C)c3[nH]2)c1 [Ex. 4.181]	3 nM	230 nM
